According to article PMC12463120, “Phenylalanine‐Based DNA‐Encoded Chemical Libraries for the Discovery of Potent and Selective Small Organic Ligands Against Markers of Cancer and Immune Cells” (Advanced Science, 2025):

Key:
[1] = molecular target: T1, PSMA (Homo sapiens, UniProt Q04609); test: Fluorescence polarization (FP) affinity against PSMA; type: binding; conditions: fluoresceinated compounds
T1 construct: Avi-tag; made in house; host or cells: CHO cells
Method: (§1) Hits obtained from FM‐DEL1 (A1452 and A3113) and FM‐DEL2 (A3113/B423) were re‐synthesized as stereo‐chemically pure off‐DNA compounds derivatized with a C6 linker featuring a fluorescein moiety (coupled to fluorescein isothiocyanate‐FITC) (compounds 1–6) [Figure 2E]. The binding affinity against PSMA and GCP3 (KD) of fluoresceinated compounds 1–6 was measured by fluorescence polarization (FP). […] The superiority of compound 5 (S‐configuration) in binding PSMA over compound 6 (R‐configuration) was confirmed by molecular docking studies [Figure S48, Supporting Information]. […] The presence of the sole building block A3113 on the 3‐iodo‐phenylalanine scaffold in the S‐configuration gives adequate selectivity for PSMA over GCP3. The addition of the second building block (B423) enhances both affinity and selectivity for the target.
(§2) Selection results were decoded with C++^[ [61] ^] and visualized using MATLAB R2019b (MathWorks). EFs were calculated by dividing the DNA sequence counts for each hit compound by the average DNA sequence count from the corresponding DEL screening. Additionally, Z‐score values were calculated following methods previously published,^[ [60] ^] as present in Supporting Information. […] Affinities of fluorescein‐bearing hits were determined by FP or ELISA measurements. […] Binding kinetics were assessed on a Biacore X100 instrument with the target protein immobilized on a CM5 chip at 4′000 RUs. Cell binding of fluorescent ligands was evaluated using flow cytometry against antigen‐positive and antigen‐negative (wild‐type) cancer cells. in vitro tissue uptake of ^177Lu‐labelled DOTAGA PSMA‐radioligands was measured via autoradiography. […]
(§3) The protein was then concentrated using Vivaspin® 20 centrifugal concentrators (30’000 Da molecular weight cutoff, Sartorius, #VS2012) and then purified by SEC or PD-10 column. The fractions were measured (absorption at 280 nm) on a Nanodrop 2000 Spectrophotometer to combine protein-containing fractions. […]
(§4) 2.11 Fluorescence polarization (FP) measurements with fluoresceine-labelled […]

[2] = system: HT-1080.hPSMA tumor cells; test: Flow cytometry on HT-1080.hPSMA cells; type: cell-based; conditions: 250 nM
Method: (§5) Selection results were decoded with C++^[ [61] ^] and visualized using MATLAB R2019b (MathWorks). EFs were calculated by dividing the DNA sequence counts for each hit compound by the average DNA sequence count from the corresponding DEL screening. Additionally, Z‐score values were calculated following methods previously published,^[ [60] ^] as present in Supporting Information. Hit compounds with high EFs in the target protein selections and low EFs in the negative controls (anti‐target and streptavidin selections) were selected for hit validation activities. All compounds were synthesized using either solid‐phase peptide synthesis or solution‐phase methodologies. Affinities of fluorescein‐bearing hits were determined by FP or ELISA measurements. […] ACP3 colorimetric inhibition assay was performed with serially diluted compounds at a fixed concentration (5 mM in PBS) of para‐nitrophenyl phosphate as substrate. Binding kinetics were assessed on a Biacore X100 instrument with the target protein immobilized on a CM5 chip at 4′000 RUs. Cell binding of fluorescent ligands was evaluated using flow cytometry against antigen‐positive and antigen‐negative (wild‐type) cancer cells. in vitro tissue uptake of ^177Lu‐labelled DOTAGA PSMA‐radioligands was measured via autoradiography. Prism 9 software (GraphPad Software) was used for data analysis of FP, ELISA, PD‐10, SPR, and enzymatic assay measurements. SPR sensograms were fitted with the Biacore X100 Evaluation Software. Flow cytometry data was processed with the FlowJo 10.4 software.
HT1080.hPSMA and PC3.hACP3 cell lines were generated by lentiviral transduction on wild type cells (HT1080.wt and PC3.wt), according to published procedures9. […]
Cancer cells were detached with an Accutase® cell detachment solution, resuspended in a standard culture medium, and transferred to falcon tubes. Cells were counted and centrifuged at 400 rcf for 3 min. […] Data were acquired halting the measurement at 10´ 000 events on a Cytoflex S flow cytometer (Beckman Coulter), and analyzed using the FlowJo software v10 (BD Biosciences). […]

[3] = molecular target: T2, recombinant human ACP3 (Homo sapiens, UniProt P15309); test: Fluorescence polarization (FP) affinity against human ACP3; type: binding; conditions: PSMA ligands as negative controls
T2 construct: made in house; host or cells: CHO cells
T2 sequence (P15309 33-386): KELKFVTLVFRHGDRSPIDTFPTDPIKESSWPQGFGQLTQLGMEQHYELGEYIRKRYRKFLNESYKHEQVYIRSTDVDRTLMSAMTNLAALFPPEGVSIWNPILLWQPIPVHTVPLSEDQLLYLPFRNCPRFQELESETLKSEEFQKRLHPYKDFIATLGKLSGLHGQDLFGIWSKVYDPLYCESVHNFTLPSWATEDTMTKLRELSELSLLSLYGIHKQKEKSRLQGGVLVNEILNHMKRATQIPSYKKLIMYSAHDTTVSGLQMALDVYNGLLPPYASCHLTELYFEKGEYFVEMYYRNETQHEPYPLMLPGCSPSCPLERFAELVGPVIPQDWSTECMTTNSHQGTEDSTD
Method: as §5, with “SPR sensograms were fitted with the Biacore X100 Evaluation Software. Flow cytometry data was processed with the FlowJo 10.4 software.” left out
as §3
Protein dissolved in PBS or HEPES buffer was incubated for 30-60 min with 5 equiv. of EZ-LinkTM NHS-LC-Biotin (Thermo Fisher Scientific, #21336). […] The fractions were measured (absorption at 280 nm) on a Nanodrop 2000 Spectrophotometer to combine protein-containing fractions. […]
as §4

[4] = molecular target: T3, human CAIX (hCAIX) (Homo sapiens, UniProt Q16790); test: Fluorescence polarization (FP) affinity against hCAIX; type: binding; conditions: fluorescein derivatives
T3 construct: made in house; host or cells: CHO cells
Method: A dilution series of target proteins (i.e., PSMA, GCP3, CAIX, CAII) in the respective formulation buffer were separately prepared in a black 384-well plate (non-binding Greiner small volume plate). Test compounds functionalized with fluorescein were diluted to a concentration between 5 and 10 nM (5 μL) and incubated for 15 min with the protein (final volume corresponding to 10 µL). The fluorophore was excited at 485 nm, and anisotropy was measured at 535 nm on a Spectra Max Paradigm multimode plate reader (Tecan). The experiments were performed in triplicate. KD values measured using this FP method can differ from dissociation constants obtained by other physical methods (e.g., surface plasmon resonance, see section below).

[5] = molecular target: T4, hCAIX (Homo sapiens, UniProt Q16790); test: Surface plasmon resonance (SPR) on hCAIX; type: binding; conditions: for Kd: 500 nM to 250 nM, CM5 chip
T4 construct: made in house; host or cells: CHO cells
Method: 2.14 Surface plasmon resonance (SPR)
SPR measurements were performed on a Biacore X100. Human recombinant ACP3 or CAIX were immobilized on a CM5 chip (Cytiva, #BR100012, both flow cells), reaching ~4000 RUs, using the EDC/NHS protocol provided by the manufacturer. The target protein immobilized on the reference flow cell was treated with denaturing solution (0.85% H3PO4, 10 mM NaOH, and 50 mM HCl). PBS (pH 7.4) was used as running buffer. Test compounds were injected at different concentrations in running buffer, according to a multicycle analysis with the following settings: 120 seconds contact time and 5´000 seconds (CAIX measurements) or 15´ 000 seconds (ACP3 measurements) dissociation time at a flow rate of 10 μL/min. Sensograms were plotted with GraphPad Prism (version 9, GraphPad Software) and fitted using the Biacore X100 Evaluation Software. […]
30 min at rt and washed with PBS (3 x 200 μL/well). The immobilized protein was incubated for 30 min in the dark with serial dilution of FITC-labelled compounds and washed with PBS (3 x 200 μL/well). A solution of rabbit polyclonal FITC antibody-horseradish peroxidase (anti-FITC-HRP, Abcam, #ab196968) 0.25 μg/mL in 2% milk-PBS was added to each well (100 μL/well) and incubated for additional 30 min in the dark at rt. Each well was washed with PBS 0.1% Tween (3 x 200 μL/ well) and with PBS (3 x 200 μL/ well). The substrate 3,3′,5,5′ -tetramethylbenzidine (TMB, Sigma Aldrich #T0440) was added (100 μL /well) and developed in the dark for 0.5-1 min. The reaction was stopped by adding 50 μL of an aqueous solution of H2SO4 1M. The absorbance was measured at 450 nm (reference level, 620–650 nm) with a Spark multimode microplate reader (Tecan Life Sciences). The experiments were […]

[6] = system: SK-RC-52 renal cell carcinoma cells; test: Flow cytometry on SK-RC-52 cells; type: cell-based; conditions: 100 nM
[7] = molecular target: T5, GCP3 (Homo sapiens, UniProt Q9Y3Q0); test: Fluorescence polarization (FP) affinity against GCP3; type: binding; conditions: fluoresceinated compounds
T5 construct: Avi-tag; made in house; host or cells: CHO cells
Method: as §1, with “The addition of the second building block (B423) enhances both affinity and selectivity for the target.” left out
as §2, with “RUs.” for “RUs. Cell binding of fluorescent ligands was evaluated using flow cytometry against antigen‐positive and antigen‐negative (wild‐type) cancer cells. in vitro tissue uptake of ^177Lu‐labelled DOTAGA PSMA‐radioligands was measured via autoradiography.”
as §4

T1 sequence (Q04609 whole entry): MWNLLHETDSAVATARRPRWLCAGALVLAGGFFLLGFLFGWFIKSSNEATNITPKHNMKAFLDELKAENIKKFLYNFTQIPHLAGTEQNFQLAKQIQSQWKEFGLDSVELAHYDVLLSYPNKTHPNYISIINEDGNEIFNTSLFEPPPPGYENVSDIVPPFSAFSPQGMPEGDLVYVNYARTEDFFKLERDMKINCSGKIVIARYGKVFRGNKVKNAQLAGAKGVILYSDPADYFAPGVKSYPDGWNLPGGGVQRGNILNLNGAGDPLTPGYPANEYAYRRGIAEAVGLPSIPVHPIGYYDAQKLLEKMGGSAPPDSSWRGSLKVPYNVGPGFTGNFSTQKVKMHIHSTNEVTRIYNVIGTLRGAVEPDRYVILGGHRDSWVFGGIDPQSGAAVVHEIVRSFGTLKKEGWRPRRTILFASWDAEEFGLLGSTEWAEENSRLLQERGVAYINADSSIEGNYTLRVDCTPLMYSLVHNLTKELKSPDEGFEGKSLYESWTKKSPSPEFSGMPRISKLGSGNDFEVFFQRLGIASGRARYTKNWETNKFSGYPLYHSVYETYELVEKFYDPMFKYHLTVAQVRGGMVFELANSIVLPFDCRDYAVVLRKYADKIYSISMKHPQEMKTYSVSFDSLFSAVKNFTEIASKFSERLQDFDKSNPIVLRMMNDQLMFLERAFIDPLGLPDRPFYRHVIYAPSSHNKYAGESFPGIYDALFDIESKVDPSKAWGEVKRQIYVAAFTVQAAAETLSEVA
T5 sequence (Q9Y3Q0 whole entry): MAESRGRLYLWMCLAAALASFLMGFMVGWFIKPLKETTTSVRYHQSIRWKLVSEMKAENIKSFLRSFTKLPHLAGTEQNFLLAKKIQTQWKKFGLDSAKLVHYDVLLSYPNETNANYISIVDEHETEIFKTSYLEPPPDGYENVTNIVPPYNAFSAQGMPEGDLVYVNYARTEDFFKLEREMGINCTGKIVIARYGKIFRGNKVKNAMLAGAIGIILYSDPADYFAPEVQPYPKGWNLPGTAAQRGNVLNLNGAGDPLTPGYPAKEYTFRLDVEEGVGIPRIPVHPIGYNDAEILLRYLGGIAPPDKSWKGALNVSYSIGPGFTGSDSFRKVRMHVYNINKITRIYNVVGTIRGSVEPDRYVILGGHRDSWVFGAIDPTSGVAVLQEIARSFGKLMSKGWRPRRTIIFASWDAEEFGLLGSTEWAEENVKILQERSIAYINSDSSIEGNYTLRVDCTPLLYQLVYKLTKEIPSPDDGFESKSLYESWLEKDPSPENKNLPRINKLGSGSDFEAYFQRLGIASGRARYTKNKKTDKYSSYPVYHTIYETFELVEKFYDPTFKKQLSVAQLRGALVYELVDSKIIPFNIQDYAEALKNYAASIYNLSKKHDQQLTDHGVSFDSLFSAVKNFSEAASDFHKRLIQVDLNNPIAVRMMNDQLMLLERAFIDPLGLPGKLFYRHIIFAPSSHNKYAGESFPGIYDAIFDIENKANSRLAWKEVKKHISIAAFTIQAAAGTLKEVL

O=C(O)CC[C@H](NC(=O)N[C@@H](Cc1cccc(I)c1)C(=O)NCCCCCCNC(=S)Nc1ccc2c(c1)C(=O)OC21c2ccc(O)cc2Oc2cc(O)ccc21)C(=O)O [compound 3]
Kd [1]: 99 nM
binding to PSMA on the cell surface by flow cytometry [2]: only compound 5 was able to bind
binding to human ACP3 by FP [3]: did not bind

NS(=O)(=O)c1nnc(Nc2cccc(C[C@H](NC(=O)CCC(=O)N[C@@H](CCCCNC(=S)Nc3ccc4c(c3)C(=O)OC43c4ccc(O)cc4Oc4cc(O)ccc43)C(=O)O)C(=O)NCC3(c4cccs4)CCOCC3)c2)s1 [compound 23]
Kd [4]: 2.06 nM

NS(=O)(=O)c1ccc(-c2cccc(C[C@@H](NC(=O)CCC(=O)N[C@@H](CCCCNC(=O)CC[C@H](C(=O)O)N3CCN(CC(=O)O)CCN(CC(=O)O)CCN(CC(=O)O)CC3)C(=O)O)C(=O)NCC3(c4cccs4)CCOCC3)c2)cc1 [compound 22]
association rate (kon) on hCAIX by SPR [5]: fast association rates
Kd [5]: 50 nM

NS(=O)(=O)c1ccc(-c2cccc(C[C@H](NC(=O)CCC(=O)N[C@@H](CCCCNC(=S)Nc3ccc4c(c3)C(=O)OC43c4ccc(O)cc4Oc4cc(O)ccc43)C(=O)O)C(=O)NCC3(c4cccs4)CCOCC3)c2)cc1 [compound 20]
Kd [4]: 2.46 nM

NS(=O)(=O)c1nnc(Nc2cccc(C[C@@H](NC(=O)CCC(=O)N[C@@H](CCCCNC(=O)CC[C@H](C(=O)O)N3CCN(CC(=O)O)CCN(CC(=O)O)CCN(CC(=O)O)CC3)C(=O)O)C(=O)NCC3(c4cccs4)CCOCC3)c2)s1 [compound 25]
association rate (kon) on hCAIX by SPR [5]: fast association rates
dissociation rate (koff) on hCAIX by SPR [5]: slower dissociation rate
Kd [5]: 13 nM

NS(=O)(=O)c1nnc(Nc2cccc(C[C@@H](NC(=O)CCC(=O)N[C@@H](CCCCNC(=S)Nc3ccc4c(c3)C(=O)OC43c4ccc(O)cc4Oc4cc(O)ccc43)C(=O)O)C(=O)NCC3(c4cccs4)CCOCC3)c2)s1 [compound 24]
Kd [4]: 1.85 nM
binding to CAIX on the cell surface by flow cytometry [6]: bound to the antigen expressed on the surface of cancer cells

O=C(O)CC[C@H](NC(=O)N[C@@H](Cc1ccc(I)cc1)C(=O)NCCCCCCNC(=S)Nc1ccc2c(c1)C(=O)OC21c2ccc(O)cc2Oc2cc(O)ccc21)C(=O)O [compound 1]
Kd [7]: 81 nM
Kd [1]: 87 nM
binding to PSMA on the cell surface by flow cytometry [2]: only compound 5 was able to bind
binding to human ACP3 by FP [3]: did not bind
